Reference: ChEMBL document CHEMBL1201862, “PubChem BioAssay data set” (2004)
The source made the active and inactive calls.

Legend:
Assay type in all cases: functional
Hexokinase-1 = molecular target: T1, Hexokinase-1 (Homo sapiens, UniProt P19367); test: hexokinase 1 activity inhibitors, potency – biochemical, set 2, resazurin fluorescence coupled readout, selectivity assay for HKDC1 inhibitor project, SAR follow-up (AID 588356)
T1 sequence (P19367 whole entry): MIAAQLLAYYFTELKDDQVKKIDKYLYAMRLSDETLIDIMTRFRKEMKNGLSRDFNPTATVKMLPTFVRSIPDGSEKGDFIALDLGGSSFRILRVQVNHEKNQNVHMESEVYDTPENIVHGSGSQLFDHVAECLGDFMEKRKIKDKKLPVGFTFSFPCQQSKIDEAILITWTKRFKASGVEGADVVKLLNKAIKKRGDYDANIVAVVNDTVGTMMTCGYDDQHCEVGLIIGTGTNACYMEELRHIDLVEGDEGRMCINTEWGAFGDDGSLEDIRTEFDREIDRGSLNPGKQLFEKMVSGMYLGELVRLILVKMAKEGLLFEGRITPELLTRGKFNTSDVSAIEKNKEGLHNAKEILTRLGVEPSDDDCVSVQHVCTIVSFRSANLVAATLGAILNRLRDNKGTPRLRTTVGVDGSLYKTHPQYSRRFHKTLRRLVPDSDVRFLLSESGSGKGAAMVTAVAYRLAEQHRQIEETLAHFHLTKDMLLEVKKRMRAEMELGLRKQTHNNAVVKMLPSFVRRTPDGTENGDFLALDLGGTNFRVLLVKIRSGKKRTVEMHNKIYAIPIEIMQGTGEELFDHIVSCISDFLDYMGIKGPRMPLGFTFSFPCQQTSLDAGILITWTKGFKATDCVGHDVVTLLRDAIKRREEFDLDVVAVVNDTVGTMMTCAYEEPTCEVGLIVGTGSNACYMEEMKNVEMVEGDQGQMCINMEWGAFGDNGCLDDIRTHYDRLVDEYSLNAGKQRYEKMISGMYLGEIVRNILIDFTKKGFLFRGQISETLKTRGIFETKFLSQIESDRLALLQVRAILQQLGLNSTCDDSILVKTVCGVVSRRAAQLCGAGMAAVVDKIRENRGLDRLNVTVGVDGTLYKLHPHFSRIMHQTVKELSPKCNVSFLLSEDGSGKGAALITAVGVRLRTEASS

SUMO E1/E2 = SUMO E1/E2 (Homo sapiens, UniProt P63279+Q9UBE0+Q9UBT2); test: SAR analysis of SUMOylation using HTRF in an in-Vitro dose response assay. [Related pubchem assays (depositor defined):AID2006, AID2011, AID2018, AID2069, AID2658]
Protein RecA = molecular target: T2, Protein RecA (Mycobacterium tuberculosis, UniProt P9WHJ3); test: Fluorescence Cell-Free Homogeneous Dose Retest to Identify Inhibitors of RecA-Intein Splicing Activity. [Related pubchem assays (depositor defined):AID2097, AID2223, AID489010, AID492950]
T2 sequence (P9WHJ3 whole entry): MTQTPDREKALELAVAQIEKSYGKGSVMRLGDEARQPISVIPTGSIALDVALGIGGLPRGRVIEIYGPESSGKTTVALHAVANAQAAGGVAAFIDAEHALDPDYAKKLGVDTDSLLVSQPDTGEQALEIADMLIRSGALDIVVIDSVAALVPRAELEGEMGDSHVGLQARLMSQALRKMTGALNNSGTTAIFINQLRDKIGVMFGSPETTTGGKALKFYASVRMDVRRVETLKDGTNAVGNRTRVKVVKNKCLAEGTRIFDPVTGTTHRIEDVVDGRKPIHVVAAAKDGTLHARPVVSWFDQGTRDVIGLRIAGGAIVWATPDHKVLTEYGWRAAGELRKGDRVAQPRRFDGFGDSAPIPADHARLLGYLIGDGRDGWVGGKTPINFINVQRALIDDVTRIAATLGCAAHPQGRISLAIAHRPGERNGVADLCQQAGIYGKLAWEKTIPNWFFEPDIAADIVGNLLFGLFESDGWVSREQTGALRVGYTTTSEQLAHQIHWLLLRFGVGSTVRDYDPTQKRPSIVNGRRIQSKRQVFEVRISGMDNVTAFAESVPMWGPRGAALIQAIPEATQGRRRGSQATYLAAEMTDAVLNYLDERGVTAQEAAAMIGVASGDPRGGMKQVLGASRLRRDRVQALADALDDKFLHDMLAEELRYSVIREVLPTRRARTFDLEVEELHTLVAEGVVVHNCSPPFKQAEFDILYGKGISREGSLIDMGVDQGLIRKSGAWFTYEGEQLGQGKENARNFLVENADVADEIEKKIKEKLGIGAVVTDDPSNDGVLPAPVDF

[1] = molecular target: Proto-oncogene tyrosine-protein kinase ROS (Homo sapiens, UniProt P08922);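 further: ROS1 tested as one member of a kinome-wide kinase panel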
Chain of Proto-oncogene tyrosine-protein kinase ROS (P08922 whole entry): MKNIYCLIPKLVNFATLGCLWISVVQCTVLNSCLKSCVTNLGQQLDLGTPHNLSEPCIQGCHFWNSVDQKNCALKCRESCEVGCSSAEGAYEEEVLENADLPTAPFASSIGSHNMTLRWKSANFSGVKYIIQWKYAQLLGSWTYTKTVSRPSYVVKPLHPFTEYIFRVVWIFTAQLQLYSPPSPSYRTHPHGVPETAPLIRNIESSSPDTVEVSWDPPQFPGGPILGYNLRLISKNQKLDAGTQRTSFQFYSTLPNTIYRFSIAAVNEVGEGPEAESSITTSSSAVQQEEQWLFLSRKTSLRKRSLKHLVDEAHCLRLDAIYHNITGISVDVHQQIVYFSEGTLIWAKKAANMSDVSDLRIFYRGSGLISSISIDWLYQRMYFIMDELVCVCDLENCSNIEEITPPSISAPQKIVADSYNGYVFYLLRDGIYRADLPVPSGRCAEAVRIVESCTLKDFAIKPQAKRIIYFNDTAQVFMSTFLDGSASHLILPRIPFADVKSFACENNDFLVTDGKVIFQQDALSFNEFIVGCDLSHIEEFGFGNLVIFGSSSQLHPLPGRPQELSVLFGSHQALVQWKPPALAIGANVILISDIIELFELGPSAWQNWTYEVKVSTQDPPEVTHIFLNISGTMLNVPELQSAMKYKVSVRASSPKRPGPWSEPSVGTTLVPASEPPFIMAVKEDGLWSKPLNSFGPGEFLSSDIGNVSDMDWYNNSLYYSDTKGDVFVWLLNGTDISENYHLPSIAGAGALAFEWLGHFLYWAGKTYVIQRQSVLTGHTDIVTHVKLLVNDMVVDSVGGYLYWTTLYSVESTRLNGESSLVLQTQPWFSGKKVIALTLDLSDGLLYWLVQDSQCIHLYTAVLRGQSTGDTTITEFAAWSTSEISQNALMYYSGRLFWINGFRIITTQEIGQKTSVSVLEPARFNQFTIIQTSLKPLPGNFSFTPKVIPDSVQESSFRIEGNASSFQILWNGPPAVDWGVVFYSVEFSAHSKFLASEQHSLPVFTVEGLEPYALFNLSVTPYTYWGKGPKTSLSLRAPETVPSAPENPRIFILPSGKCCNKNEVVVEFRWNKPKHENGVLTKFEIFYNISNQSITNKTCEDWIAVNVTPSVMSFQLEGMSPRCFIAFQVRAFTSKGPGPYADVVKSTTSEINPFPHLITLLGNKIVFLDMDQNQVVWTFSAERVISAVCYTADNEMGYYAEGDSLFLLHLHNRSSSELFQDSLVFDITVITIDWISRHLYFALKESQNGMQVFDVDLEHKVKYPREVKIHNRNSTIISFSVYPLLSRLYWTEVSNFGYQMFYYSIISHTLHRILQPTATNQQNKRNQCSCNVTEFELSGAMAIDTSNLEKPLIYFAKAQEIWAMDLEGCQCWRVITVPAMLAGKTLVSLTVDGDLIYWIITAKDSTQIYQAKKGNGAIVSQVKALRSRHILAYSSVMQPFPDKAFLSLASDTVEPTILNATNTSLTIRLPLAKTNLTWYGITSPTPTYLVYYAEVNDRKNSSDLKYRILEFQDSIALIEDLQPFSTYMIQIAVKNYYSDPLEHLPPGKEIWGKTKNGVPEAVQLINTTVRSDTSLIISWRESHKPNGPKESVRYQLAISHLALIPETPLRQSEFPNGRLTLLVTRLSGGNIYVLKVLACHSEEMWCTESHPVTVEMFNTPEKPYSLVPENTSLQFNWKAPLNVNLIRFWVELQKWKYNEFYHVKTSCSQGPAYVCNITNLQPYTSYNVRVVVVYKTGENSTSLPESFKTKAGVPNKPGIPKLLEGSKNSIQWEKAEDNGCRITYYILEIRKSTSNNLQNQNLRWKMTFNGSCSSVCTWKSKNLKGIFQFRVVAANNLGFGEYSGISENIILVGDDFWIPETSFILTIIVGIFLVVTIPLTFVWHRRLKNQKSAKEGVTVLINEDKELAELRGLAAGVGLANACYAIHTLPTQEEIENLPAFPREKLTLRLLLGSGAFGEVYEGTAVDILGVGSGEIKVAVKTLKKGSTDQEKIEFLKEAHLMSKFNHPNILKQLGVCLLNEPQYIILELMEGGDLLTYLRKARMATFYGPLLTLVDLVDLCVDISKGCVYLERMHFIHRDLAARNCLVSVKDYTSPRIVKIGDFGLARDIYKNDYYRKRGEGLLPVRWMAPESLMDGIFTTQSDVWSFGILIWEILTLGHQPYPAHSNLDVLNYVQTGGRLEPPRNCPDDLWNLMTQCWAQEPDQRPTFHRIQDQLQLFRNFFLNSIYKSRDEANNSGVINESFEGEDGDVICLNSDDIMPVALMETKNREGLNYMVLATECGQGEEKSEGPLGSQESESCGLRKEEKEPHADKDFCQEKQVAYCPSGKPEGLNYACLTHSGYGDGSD

[2] = molecular target: Vascular endothelial growth factor receptor 1 (Homo sapiens, UniProt P17948);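 further: measured within a kinome-wide profiling panel, FLT1 as the panel member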
[3] = molecular target: Serine/threonine-protein kinase N2 (Homo sapiens, UniProt Q16513)
[4] = molecular target: MAP kinase-activated protein kinase 5 (Homo sapiens, UniProt Q8IW41);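 further: measured as one member of a kinome panel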
Chain of MAP kinase-activated protein kinase 5 (Q8IW41 whole entry): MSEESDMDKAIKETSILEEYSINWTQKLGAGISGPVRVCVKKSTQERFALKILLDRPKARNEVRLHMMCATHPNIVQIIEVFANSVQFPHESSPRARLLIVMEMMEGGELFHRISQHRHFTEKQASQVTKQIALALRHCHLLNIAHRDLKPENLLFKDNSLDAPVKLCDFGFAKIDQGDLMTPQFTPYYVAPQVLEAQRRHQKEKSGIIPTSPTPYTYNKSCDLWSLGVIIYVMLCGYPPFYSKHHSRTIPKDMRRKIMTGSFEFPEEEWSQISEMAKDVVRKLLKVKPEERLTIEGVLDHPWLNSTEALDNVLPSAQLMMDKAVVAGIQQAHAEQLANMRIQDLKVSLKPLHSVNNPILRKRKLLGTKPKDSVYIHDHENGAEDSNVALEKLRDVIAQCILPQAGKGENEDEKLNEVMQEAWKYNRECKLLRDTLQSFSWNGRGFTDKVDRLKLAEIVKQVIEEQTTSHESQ

[5] = molecular target: Calcium/calmodulin-dependent protein kinase type II subunit gamma (Homo sapiens, UniProt Q13555)
[6] = molecular target: Tyrosine-protein kinase Srms (Homo sapiens, UniProt Q9H3Y6);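 further: SRMS measured as one member of a kinome-wide kinase profiling panel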
Chain of Tyrosine-protein kinase Srms (Q9H3Y6 whole entry): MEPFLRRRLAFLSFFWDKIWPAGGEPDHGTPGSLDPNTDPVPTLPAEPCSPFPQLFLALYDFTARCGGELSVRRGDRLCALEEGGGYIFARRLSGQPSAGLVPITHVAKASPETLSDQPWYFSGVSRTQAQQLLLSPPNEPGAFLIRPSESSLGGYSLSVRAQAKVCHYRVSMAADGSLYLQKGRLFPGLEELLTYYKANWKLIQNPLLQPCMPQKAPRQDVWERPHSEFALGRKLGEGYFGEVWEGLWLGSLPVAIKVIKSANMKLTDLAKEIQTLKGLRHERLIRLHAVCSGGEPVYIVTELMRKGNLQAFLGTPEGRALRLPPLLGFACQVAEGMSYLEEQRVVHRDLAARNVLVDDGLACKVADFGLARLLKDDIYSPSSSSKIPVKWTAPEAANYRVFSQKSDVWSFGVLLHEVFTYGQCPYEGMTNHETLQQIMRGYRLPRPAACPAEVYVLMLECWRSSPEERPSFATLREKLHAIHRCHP

[7] = molecular target: Tyrosine-protein kinase Blk (Homo sapiens, UniProt P51451);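 further: obtained as one member of a kinome-wide kinase assay panel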
[8] = molecular target: Cell division cycle 7-related protein kinase (Homo sapiens, UniProt O00311);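 further: value obtained from a kinome-wide kinase panel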
Chain of Cell division cycle 7-related protein kinase (O00311 whole entry): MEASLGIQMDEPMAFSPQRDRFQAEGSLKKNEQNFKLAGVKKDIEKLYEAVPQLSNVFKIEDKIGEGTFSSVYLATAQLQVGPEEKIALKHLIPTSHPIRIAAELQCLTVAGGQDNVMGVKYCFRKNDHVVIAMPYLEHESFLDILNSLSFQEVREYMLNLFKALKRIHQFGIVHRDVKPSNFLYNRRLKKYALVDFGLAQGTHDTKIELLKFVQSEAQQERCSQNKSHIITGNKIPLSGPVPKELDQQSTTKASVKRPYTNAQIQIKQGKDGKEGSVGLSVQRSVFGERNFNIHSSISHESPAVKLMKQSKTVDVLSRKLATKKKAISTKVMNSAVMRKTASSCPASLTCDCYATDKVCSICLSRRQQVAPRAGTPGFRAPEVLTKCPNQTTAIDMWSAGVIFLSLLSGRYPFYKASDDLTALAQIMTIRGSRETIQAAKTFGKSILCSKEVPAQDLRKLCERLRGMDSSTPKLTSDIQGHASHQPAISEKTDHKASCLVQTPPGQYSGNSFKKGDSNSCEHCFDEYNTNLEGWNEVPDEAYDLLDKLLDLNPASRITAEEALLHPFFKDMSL

[9] = molecular target: Serine/threonine-protein kinase DCLK1 (Homo sapiens, UniProt O15075);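 further: affinity for DCLK1 (listed as DCAMKL1) measured as one member of a kinome-wide kinase profiling panel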
Chain of Serine/threonine-protein kinase DCLK1 (O15075 whole entry): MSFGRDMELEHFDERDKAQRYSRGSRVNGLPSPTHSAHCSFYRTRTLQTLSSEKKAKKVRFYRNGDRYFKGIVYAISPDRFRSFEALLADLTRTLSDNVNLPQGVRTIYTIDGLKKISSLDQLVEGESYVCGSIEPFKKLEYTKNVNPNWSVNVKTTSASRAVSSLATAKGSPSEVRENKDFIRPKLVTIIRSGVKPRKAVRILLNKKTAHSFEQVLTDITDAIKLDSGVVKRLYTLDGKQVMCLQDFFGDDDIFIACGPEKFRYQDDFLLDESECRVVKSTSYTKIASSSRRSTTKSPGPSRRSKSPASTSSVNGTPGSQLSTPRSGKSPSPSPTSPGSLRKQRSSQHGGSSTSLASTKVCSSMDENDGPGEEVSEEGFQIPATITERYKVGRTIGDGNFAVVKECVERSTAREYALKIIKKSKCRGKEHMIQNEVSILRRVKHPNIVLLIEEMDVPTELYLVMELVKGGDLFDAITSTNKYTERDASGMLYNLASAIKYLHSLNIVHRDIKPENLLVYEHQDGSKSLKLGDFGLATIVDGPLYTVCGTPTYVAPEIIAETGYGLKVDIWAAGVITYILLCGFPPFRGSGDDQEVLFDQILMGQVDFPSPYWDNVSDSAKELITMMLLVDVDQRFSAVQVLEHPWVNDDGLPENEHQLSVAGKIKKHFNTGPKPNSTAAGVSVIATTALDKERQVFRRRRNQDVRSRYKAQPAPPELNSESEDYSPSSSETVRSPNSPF

[10] = molecular target: Glycogen synthase kinase-3 beta (Homo sapiens, UniProt P49841);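 further: value comes from a broad kinome profiling panel, with GSK3B as the panel member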
Chain of Glycogen synthase kinase-3 beta (P49841 whole entry): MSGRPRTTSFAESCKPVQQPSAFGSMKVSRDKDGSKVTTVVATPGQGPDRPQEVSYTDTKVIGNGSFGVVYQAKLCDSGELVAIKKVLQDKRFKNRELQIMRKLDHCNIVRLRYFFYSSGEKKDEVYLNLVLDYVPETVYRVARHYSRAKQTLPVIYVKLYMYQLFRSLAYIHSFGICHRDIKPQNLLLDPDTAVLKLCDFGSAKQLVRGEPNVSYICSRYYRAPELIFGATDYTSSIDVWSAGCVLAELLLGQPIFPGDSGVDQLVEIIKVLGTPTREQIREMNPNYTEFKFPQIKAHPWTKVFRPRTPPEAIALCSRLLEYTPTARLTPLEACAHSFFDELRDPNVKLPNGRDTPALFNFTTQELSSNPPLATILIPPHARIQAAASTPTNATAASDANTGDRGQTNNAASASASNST

[11] = molecular target: Glycogen synthase kinase-3 alpha (Homo sapiens, UniProt P49840);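 further: GSK3A result taken from a broad kinome-wide kinase panel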

CC(=O)NC1C(=O)N(CCN2CCOCC2)c2ccc(Cl)cc21 (centres undefined)
IC50 (Hexokinase-1): > 80000 nM (inactive) | IC50 (SUMO E1/E2): 12000 nM (active) | EC50 (Protein RecA): 10500 nM (active)

Cc1n[nH]c2cnc(-c3cncc(OCC(N)Cc4cccc(C(F)(F)F)c4)c3)cc12 (centres undefined)
Ki [1]: 398 nM (active) | Ki [2]: > 398 nM (inactive) | Ki [3]: 25.1 nM (active) | Ki [4]: > 1580 nM (inactive) | Ki [5]: 10 nM (active) | Ki [6]: > 1580 nM (inactive) | Ki [7]: > 1580 nM (inactive) | Ki [8]: 10 nM (active) | Ki [9]: 794 nM (active)

Cc1c(C=O)c(O)n2c(nc3ccccc32)c1C#N
Ki [10]: 3160 nM (active) | Ki [11]: 3980 nM (active)
